The text below walks through data of publication PMC10661964 (Current Drug Metabolism, 2023).

One data set deals with human CYP enzymes. Kind of data set: CYP induction, all isoforms tested (summary). Type of data set: in vitro ADME. The source says:
(§1) The inhibition of cytochrome P450 (CYP) isoforms and a range of cellular transporters (except multidrug and toxin extrusion [MATE] proteins), as well as the induction of CYP isoforms were investigated using previously described methods.

Data set [1] addresses CYP 3A4 (Homo sapiens, UniProt P08684). Briefly: CYP inhibition with probe substrates. Type of data set: in vitro ADME.
Text: as §1

The target in the next data set is T1, MATE1 (Homo sapiens, UniProt Q96FL8).
T1 construct: expressed in transfected cells; host or cells: HEK293, stably transfected
T1 sequence (Q96FL8 1-570): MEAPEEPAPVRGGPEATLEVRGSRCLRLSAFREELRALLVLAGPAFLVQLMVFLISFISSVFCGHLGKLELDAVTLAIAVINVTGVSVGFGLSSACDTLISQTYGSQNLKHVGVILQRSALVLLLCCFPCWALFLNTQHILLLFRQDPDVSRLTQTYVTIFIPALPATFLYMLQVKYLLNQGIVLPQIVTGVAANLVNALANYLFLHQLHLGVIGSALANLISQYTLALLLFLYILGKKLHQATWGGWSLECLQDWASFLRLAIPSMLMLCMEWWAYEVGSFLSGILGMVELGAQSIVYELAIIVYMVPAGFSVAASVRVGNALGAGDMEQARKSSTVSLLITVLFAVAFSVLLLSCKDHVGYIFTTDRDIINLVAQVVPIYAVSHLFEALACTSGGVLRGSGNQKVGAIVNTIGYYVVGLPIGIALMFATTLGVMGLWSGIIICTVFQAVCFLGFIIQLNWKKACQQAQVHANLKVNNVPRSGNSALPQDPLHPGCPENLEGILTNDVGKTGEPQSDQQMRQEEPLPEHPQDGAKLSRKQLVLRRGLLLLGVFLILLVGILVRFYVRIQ
Briefly: MATE1 transport assay in overexpressing HEK293 cells. Type of data set: in vitro ADME. The conditions noted are these: probe substrate metformin 20 µM. As for the experimental part: as §1
(§2) Supplementary Material Current Drug Metabolism, 2023, Vol. 24, No. 8 iii […]
(§3) -, not determined; BCRP, breast cancer resistance protein; P-gp, P-glycoprotein; MATE, multidrug and toxin extrusion. aThe highest test concentration of 20 µM was not valid in this assay for technical reasons.
(§4) OAT, organic anion transporter; OATP, organic anion transporting polypeptide; OCT, organic cation transporters.
(§5) After thawing from frozen storage, aliquots of approximately 3 x 10^6 cells of human embryonic kidney (HEK293) cell line stable overex-pressing MATE1 or MATE2K were transferred to cell culture dishes containing 10 mL of DMEM-medium (supplemented with 10% FBS, 1% penicillin [10.000 U/mL]/streptomycin [10 mg/mL] and hygromycin B [150 µg/mL]) at 37°C. Transporter-transfected and vector-transfected HEK cells were grown on cell culture dishes at 37°C in a humidified 5% CO 2 atmosphere. All cell lines were confirmed free from mycoplasma by routine testing with conventional PCR. Cell cultures were split when they had grown to confluency. For passaging, cells were washed with PBS, exposed to trypsin-EDTA for 5 min at room temperature, collected by centrifugation, resuspended in culture medium and […]
(§6) MATE1 and MATE2K Transport Assays
(§7) Transporter-transfected and vector-transfected cells were prepared for use in uptake assays by harvesting and plating into 24-well-plates pre-coated with poly-D-lysine hydrobromide at a density of 2 x 10^5 cells/well and then cultured for 3 days in DMEM growth medium (high glucose, 10% FBS, 1% penicillin/streptomycin). For uptake assays, the growth medium was aspirated and each plate well was rinsed twice with HBSS supplemented with 20 mM HEPES, pH 7.4. The intracellular environment was acidified by preincubation in 30 mM NH4Cl in buffer pH 7.4 at 37°C for 30 min. […]

A further data set relates to CYP 1A2. Briefly: CYP induction (mRNA and CYP activity). In kind it is in vitro ADME, human.
Text: as §1

The subject of a further data set is CYP 2B6. Briefly: CYP induction (mRNA and CYP activity). In kind it is in vitro ADME, human.
Text: as §1

The test system of data set [2] is CYP 3A4. Kind of data set: CYP induction (mRNA and CYP activity). In kind it is in vitro ADME, human.
Text: as §1

In a further data set the target is T2, MATE2K (Homo sapiens, UniProt Q86VL8).
T2 construct: expressed in transfected cells; host or cells: HEK293, stably transfected
Briefly: MATE2K transport assay in overexpressing HEK293 cells. In kind it is in vitro ADME. The following applies: probe substrate metformin 90 µM. As for the experimental part:
as §1, §2, §3, §4, §5, §6, §7

A short description of data set [3]: Unbound fraction (fu) in human plasma. In kind it is in vitro ADME.
A short description of data set [4]: Quantification of nifurtimox and metabolites in human plasma (LC-HRMS), plasma PK. Type of data set: in vivo. The conditions noted are these: fed; for AUC(tlast-∞) (extrapolated proportion): pooled plasma of 6 patients, single oral 120 mg nifurtimox; for AUC, % of total quantified exposure: sum of AUC of nifurtimox and M-1 to M-6 = 100%, single oral 120 mg. As for the experimental part:
Plasma samples from timepoints 0, 0.25, 0.5, 0.75, 1, 1.5, 2, 2.5, 3, 4, 6, 8, 12, 15, and 24 h from 6 patients were analyzed. Blood samples were collected into lithium heparinized tubes. Blood cells and plasma were then separated by centrifugation, and the plasma was stored frozen until needed. For the analysis, plasma samples were thawed at room temperature and homogenized by vortex mixing. Equal volumes of plasma from the six patients for each timepoint were combined to a pooled volume of 200 µL. To precipitate protein, a 3-fold volume of acetonitrile/0.5% formic acid (v/v in water) was added to each pooled sample which was thoroughly mixed and then centrifuged at 20,000 g. […] For all analytes, the analytical precision ranged from 0.1% to 8.8%, and the accuracy was 95% to 108%.

For data set [5], the system named is human CYP enzymes (all isoforms tested). Briefly: CYP inhibition, all isoforms tested (summary). In kind it is in vitro ADME. The following applies: reversible and irreversible.
Text: as §1

[6] abbreviates: 3A4 (M), 30-min preincubation, probe substrate midazolam, read-out: Pre- IC50 (+ NADPH).
The mark [7] stands for this setting: 3A4 (M), coincubation, probe substrate midazolam, read-out: Co- IC50.
[8] abbreviates: 3A4 (M), probe substrate midazolam.
Setting [9] is: 3A4 (T), 30-min preincubation, probe substrate testosterone, read-out: Pre- IC50 (+ NADPH).
The mark [10] stands for this setting: 3A4 (T), coincubation, probe substrate testosterone, read-out: Co- IC50.
Setting [11] is: 3A4 (T), probe substrate testosterone.

“And” between values parts separate entries of the source, which are not always exact repeats. Equal entries are not always repeated. Where two headings read alike, the source gives them in different places. A value given as a limit tells only on which side of the number the result lay.

T2 sequence (Q86VL8 1-566 isoform Q86VL8-3): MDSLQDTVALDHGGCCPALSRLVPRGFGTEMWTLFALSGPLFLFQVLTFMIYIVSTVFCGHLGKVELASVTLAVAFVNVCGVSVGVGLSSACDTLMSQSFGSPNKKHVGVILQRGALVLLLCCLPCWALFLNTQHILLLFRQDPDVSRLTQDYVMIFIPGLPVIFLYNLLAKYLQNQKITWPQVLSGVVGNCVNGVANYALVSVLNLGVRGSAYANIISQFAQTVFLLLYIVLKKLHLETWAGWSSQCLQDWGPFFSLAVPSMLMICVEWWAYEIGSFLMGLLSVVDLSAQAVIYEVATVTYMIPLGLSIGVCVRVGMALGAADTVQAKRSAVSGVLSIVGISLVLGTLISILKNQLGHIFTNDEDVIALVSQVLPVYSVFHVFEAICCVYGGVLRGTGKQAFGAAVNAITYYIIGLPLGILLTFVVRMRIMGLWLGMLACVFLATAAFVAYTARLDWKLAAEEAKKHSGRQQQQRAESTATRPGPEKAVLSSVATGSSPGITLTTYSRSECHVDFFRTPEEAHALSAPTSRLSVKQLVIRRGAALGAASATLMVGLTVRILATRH
Chain of CYP 3A4 (Homo sapiens, UniProt P08684) (P08684 whole entry): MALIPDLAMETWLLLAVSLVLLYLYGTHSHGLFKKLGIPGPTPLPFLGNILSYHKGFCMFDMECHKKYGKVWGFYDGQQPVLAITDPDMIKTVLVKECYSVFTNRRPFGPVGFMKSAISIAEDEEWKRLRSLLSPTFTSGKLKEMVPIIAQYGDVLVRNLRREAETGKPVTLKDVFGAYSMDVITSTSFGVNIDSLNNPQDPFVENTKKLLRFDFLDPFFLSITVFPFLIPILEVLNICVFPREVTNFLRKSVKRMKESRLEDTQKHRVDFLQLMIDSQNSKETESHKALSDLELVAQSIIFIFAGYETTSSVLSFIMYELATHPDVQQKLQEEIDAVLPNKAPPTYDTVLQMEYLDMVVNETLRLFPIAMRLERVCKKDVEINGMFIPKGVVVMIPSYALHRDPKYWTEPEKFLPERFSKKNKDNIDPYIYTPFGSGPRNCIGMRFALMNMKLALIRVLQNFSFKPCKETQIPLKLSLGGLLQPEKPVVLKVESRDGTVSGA

Turning to `CC1CS(=O)(=O)CCN1n1cc(SCC(N)C(=O)O)ccc1=O` (stereo not drawn) [M-4], in the data set on human CYP enzymes, the “concentration up to which induction of CYP mRNA or activity was absent” value (“concentration up to which induction” below) was at most 80 µg/mL. Moreover, the concentration for half-maximal inhibition (IC50) – broadly, the midpoint of a concentration-inhibition curve – at CYP 3A4 [1] (setting [6]) is over 2e-05 M; on CYP 3A4 [1] (setting [7]) it was over 2e-05 M; on CYP 3A4 [1] (setting [9]), over 2e-05 M; on CYP 3A4 [1] (setting [10]) it was over 2e-05 M; at MATE1, over 5 µM; at MATE2K it was over 5 µM. The molecule also showed a 50% inhibitory concentration (IC50) in data set [5] of over 20 µM. The “TDI (time-dependent inhibition)” value at CYP 3A4 [1] (setting [8]) and on CYP 3A4 [1] (setting [11]) was “No” throughout. The “concentration up to which no induction (mRNA and CYP activity)” value (“concentration up to which no induction” for short) with CYP 1A2, with CYP 2B6 and with CYP 3A4 [2] was “up to 80000 µg/L” throughout. Further, in data set [3], the fraction unbound (commonly the share of the substance not bound to proteins or other matrix) turned out to be 1. In addition, in [4], the “AUC(tlast-∞) (extrapolated proportion)” value is reported as 48.4%. Besides, the “AUC, % of total quantified exposure” value in data set [4] is 8.9% and 8.9^a %.
Consider `CC1CS(=O)(=O)CCN1/N=C/c1ccc([N+](=O)[O-])o1` (stereo not drawn) [Nifurtimox, (E)-N-(3-methyl-1,1-dioxo-1,4-thiazinan-4-yl)-1-(5-nitrofuran-2-yl) methanimine, reference compound], for which the “concentration up to which induction” value in the data set with human CYP enzymes is reported as “up to 30 mg/L”. In addition, the 50% inhibitory concentration (IC50) at CYP 3A4 [1] (setting [6]) is 4.8e-05 to 4.9e-05 M; at CYP 3A4 [1] (setting [7]), over 5e-05 M; at CYP 3A4 [1] (setting [9]) it was over 5e-05 M; at CYP 3A4 [1] (setting [10]) it was over 5e-05 M; against MATE1 it was over 20 µM; against MATE2K, over 20 µM. In data set [5], the IC50 is over 50 µM. Further, the “TDI (time-dependent inhibition)” value on CYP 3A4 [1] (setting [8]) and on CYP 3A4 [1] (setting [11]) was “No” throughout. Moreover, the “concentration up to which no induction” value in the data set on CYP 1A2, with CYP 2B6 and with CYP 3A4 [2] was “up to 30000 µg/L” each time. The same molecule came in with a fraction unbound in data set [3] of 0.576. For the same molecule, the “AUC(tlast-∞) (extrapolated proportion)” value in data set [4] is 0.6%. The “AUC, % of total quantified exposure” value in data set [4] amounted to 16.9%.
`CC1CS(=O)(=O)CCN1N` (stereo not drawn) [M-6]: in the data set with human CYP enzymes, the “concentration up to which induction” value was at most 90 µg/mL. The IC50 on CYP 3A4 [1] (setting [6]) was over 0.0001 M; on CYP 3A4 [1] (setting [7]) it was over 0.0001 M; on CYP 3A4 [1] (setting [9]), over 0.0001 M; at CYP 3A4 [1] (setting [10]), over 0.0001 M; against MATE1 it was over 30 µM; against MATE2K it was over 30 µM. Moreover, the half-inhibitory concentration (IC50) in data set [5] was over 100 µM. Further, the “TDI (time-dependent inhibition)” value on CYP 3A4 [1] (setting [8]) and on CYP 3A4 [1] (setting [11]) was “No” each time. The “concentration up to which no induction” value with CYP 1A2, in the data set on CYP 2B6 and in the data set on CYP 3A4 [2] was “up to 90000 µg/L” throughout. In addition, the fraction unbound in [3] amounted to 1. Also, the “AUC(tlast-∞) (extrapolated proportion)” value in data set [4] is on record as 21.8%. Further, the “AUC, % of total quantified exposure” value in data set [4] worked out at 69.4%.
